Reference: ChEMBL document CHEMBL1201862, “PubChem BioAssay data set” (2004)
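Results reflect a 48-hour exposure of cells in 96-well plates to compound at five concentrations. The concentration for 50% growth inhibition is given as GI50.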 Calls of active or inactive are those of the source. Rule as the data show it: active = GI50 up to about 1.1 µM and inactive = higher.

Tests used:
Assay in all cases: growth of human tumour cells (NCI), 48 h
[1] = system: 786-0
[2] = system: ACHN
[3] = system: HCC 2998
[4] = system: HL-60
[5] = system: K562
[6] = system: KM12
[7] = system: MOLT-4
[8] = system: NCI-H460
[9] = system: NCI-H522
[10] = system: OVCAR-3
[11] = system: RXF 393
[12] = system: SF-268
[13] = system: SF-539
[14] = system: SK-MEL-28
[15] = system: SN12C
[16] = system: SNB-19
[17] = system: TK-10
[18] = system: UACC-62

Measured: GI50

COc1cc2c3c(c1OC)Oc1ccc(cc1)CC1c4c(cc(OC)c(OC)c4Oc4ccc(cc4)CC3N(C)CC2)CCN1C (configuration not stated)
inactive: [1] 19.8 µM | [2] 26.2 µM | [3] 14 µM | [4] 15.3 µM | [5] 16.9 µM | [6] 34.4 µM | [7] 21.8 µM | [8] 18.7 µM | [9] 12.7 µM | [10] 18.6 µM | [11] 12.9 µM | [12] 27 µM | [13] 14.5 µM | [14] 18.8 µM | [15] 19 µM | [16] 33 µM | [17] 22.1 µM | [18] 19 µM

COC(OC)c1cc2c(cc1C=O)OCO2
inactive: [1] > 100 µM | [2] > 100 µM | [3] > 100 µM | [4] 47.2 µM | [5] 64.9 µM | [6] > 100 µM | [7] > 100 µM | [8] > 100 µM | [9] > 100 µM | [10] 75.5 µM | [11] > 100 µM | [12] > 100 µM | [13] > 100 µM | [14] > 100 µM | [15] > 100 µM | [16] > 100 µM | [17] > 100 µM | [18] 44 µM

Cc1c2c(c(C)c3c4c(oc13)CCCC4)C=NCC2
inactive: [1] 35.2 µM | [2] 15.8 µM | [3] 21.1 µM | [4] 19.7 µM | [5] 11.1 µM | [6] 16.1 µM | [7] 7.89 µM | [8] 15.8 µM | [9] 16 µM | [10] 14.9 µM | [11] 3.66 µM | [12] 20.2 µM | [13] 15.2 µM | [14] 18.9 µM | [15] 15.8 µM | [16] 22.8 µM | [17] 12.1 µM | [18] 15 µM

CCC(C)n1c(C)nc2c1C(=O)c1ccccc1C2=O (configuration not stated)
inactive: [1] 61.2 µM | [2] 46.9 µM | [3] 60.8 µM | [4] 14.5 µM | [5] 34 µM | [6] > 100 µM | [7] 28.1 µM | [8] 19.3 µM | [9] 51.3 µM | [10] 32.5 µM | [11] 26.7 µM | [12] 30.8 µM | [13] 32.7 µM | [14] 75.7 µM | [15] 57.8 µM | [16] 96.6 µM | [17] 94.6 µM | [18] 28.2 µM
